# Tests used:
# IgA = IgA measurement in cecal contents (Rat IgA ELISA Kit); assay type: in vivo, SD rats; conditions: 5.5% in NF diet, 8 weeks; for IgA amount of cecal contents: compared to the NF group (p<0.01), FIG. 2
# Protocol: (§1) Fifteen 3-week-old SD rats (Japan SLC, Inc.) were acclimatized to the facility for one week and then divided into three groups of NF group (No Fiber diet), α-CD group (5.5% α-CD-containing NF diet) and LS group (5.5% LS-containing NF diet), each including five rats, and each rat was kept in one cage. In this test, the experiment was conducted in accordance with the Guidelines for Animal Experimentation of Kobe Women's University (Kobe, Japan), and approved by the animal ethics committee of the Graduate School of Science of Health and Nutrition at Kobe Women's University. The breeding environment was at 23±3° C. with a humidity of 60±10%, and cycles of 12-hour light/12-hour dark were provided. The rats were allowed to freely take diets and water and bread for eight weeks with experimental diets.
# (§2) The diets were prepared in such a manner that the α-CD or LS content of dry experimental diet became 5.5%. After mixing each powder well, 100 ml of water was added, and thus mixed material was used as an experimental diet.
# (§3) The rats of each group were fasted overnight eight weeks after starting breeding and then dissected under isoflurane anesthesia, and the cecum were taken out.
# One hundred milligrams of cecal contents were measured and stirred after adding 1 ml of Elix water. After stirring, the resultant was centrifuged under the conditions of 10000 rpm for 30 min at 4° C., and the supernatant was used as a sample for IgA measurement. IgA amount of each sample was measured using Rat IgA ELISA Kit (Bethyl Laboratories, Inc.). Statistical analysis was conducted in the same manner as in 1) above.
# Caco-2 cells [1] = experiment: Cytotoxicity of food emulsifiers alone (LDH activity); assay type: cell-based, human
# Protocol: (§4) Caco-2 cells were inoculated to a 96-well plate at 10000 cells/well and cultured for three days to confluency. The Caco-2 cells were washed with PBS and then treated with a food emulsifier SE (250 μg/mL HLB16P, 1000 μg/mL HLB11S or 500 μg/mL […]) or monolaurin (500 μg/mL) and α-CD for an hour, and the LDH activities of each were measured. The treatment amounts of α-CD were 1/10, 1, 1.5, 2, 5 and 10 times the weight ratios for each SE. For monolaurin, the treatment amounts of α-CD were 1/10, 1, 1.5, 2, 5, 10 and 15 times the weight ratios.
# For comparison, the LDH activities of Caco-2 cells which were treated with the SE (HLB16P (0-1000 μg/mL), HLB11S or HLB16S (each 0-2000 μg/mL)) or monolaurin (0-2500 μg/mL) alone for an hour were also measured.
# [2] = pH analysis of cecal contents; assay type: in vivo, SD rats; conditions: 5.5% in NF diet, 8 weeks
# Protocol: as §1, with “diets. […]” for “diets.”
# (§5) A cut was made in the cecum taken out in 1 above, and the contents were squeezed out. The weights of the cecal contents were measured. […]
# (§6) The cecal contents which were thawed for the microflora analysis were mixed and homogenized, and the analysis of the microflora by the T-RFLP method, measurement of the SCFAs amounts and the pH analysis were entrusted (TechnoSuruga Laboratory Co., Ltd.). The total SCFAs amounts were calculated by adding up the amounts of lactic acid, succinic acid, acetic acid, propionic acid and butyric acid.
# [3] = tested on: cecal microflora (Lactobacillales); experiment: Analysis of cecal microflora by the T-RFLP method; assay type: in vivo, SD rats; conditions: 5.5% in NF diet, 8 weeks; compared to the NF group or the LS group
# Protocol: as §1, with “diets. […]” for “diets.”
# as §5, §6
# Caco-2 cells [4] = experiment: Transepithelial electrical resistance decrease by food emulsifier; assay type: cell-based, human; conditions: HLB16P 62.5 μg/mL and α-CD 0-2000 μg/mL, 120 minutes, FIG. 7A
# Protocol: Caco-2 cells were seeded to a Transwell insert at 0.4×10^6 cells/mL using Corning (registered trademark) BioCoat (trademark) intestinal epithelial cells (Caco-2) differentiation environment kit (Corning International K.K.), cultured for one day in a normal medium and cultured for three days in a differentiation medium. The Caco-2 cells were washed with PBS, then treated with HLB16P (62.5 μg/mL) and α-CD (0-2000 μg/mL) and incubated for 120 minutes. During the incubation, the transepithelial electrical resistance values were measured every 20 minutes by Millicell ERS-2 resistance measurement system (Nihon Millipore K.K.).
# In the same manner, the transepithelial electrical resistance values were measured after treatment with HLB16P (62.5 μg/mL) and α-CD (2000 μg/mL), each water-soluble dietary fiber or oligosaccharide (2000 μg/mL).
# Caco-2 cells [5] = experiment: Effect on cytotoxicity of food emulsifiers (LDH activity); assay type: cell-based, human; conditions: one hour
# Protocol: as §4
# [6] = Measurement of SCFAs amounts in cecal contents; assay type: in vivo, SD rats; conditions: 5.5% in NF diet, 8 weeks
# Protocol: as §1, §2, §3
# A cut was made in the cecum taken out in 1 above, and the contents were squeezed out. The weights of the cecal contents were measured. Immediately after the weight measurement, the contents were frozen with liquid nitrogen and stored at −80° C.
# as §6
# Feces amount measurement = assay type: in vivo, SD rats; conditions: 5.5% in NF diet, feces of three days from the 45th day
# Protocol: as §1, §2
# A drainboard was placed on the floor of each breeding cage 44 days after starting the test, and the feces that fell under the drainboard were collected every day for three days in succession after the 45th day. The weight (wet weight) of the collected feces (for the three days) was measured, and then after drying under reduced pressure, the feces weight after drying (dry weight) was measured.
# [7] = tested on: putrefactive products (indole, p-cresol and phenol); experiment: Putrefactive product measurement in cecal contents; assay type: in vivo, SD rats; conditions: 5.5% in NF diet, 8 weeks
# Protocol: as §1, §2, §3
# Analysis of the amounts of putrefactive products (indole, p-cresol and phenol) in cecal contents was entrusted (TechnoSuruga Laboratory Co., Ltd.).
# mucin = experiment: Mucin measurement in cecal contents (Fecal mucin Assay Kit); assay type: in vivo, SD rats; conditions: 5.5% in NF diet, 8 weeks, FIG. 1
# Protocol: as §1
# The diets were prepared in such a manner that the α-CD or LS content of dry experimental diet became 5.5%. After mixing each powder well, 100 ml of water was added, and thus mixed material was used as an experimental diet. […]
# The mucin amounts of the cecal contents were measured using Fecal mucin Assay Kit (Cosmo Bio Co., Ltd.), statistically analyzed by the Dunnett's test and the Student's t-test using Pharmaco Analyst I (Ver. 13.1.1; Three S Japan) and shown with the average values ±standard errors.
# [8] = HLB11S 1000 μg/mL, weight ratio, FIG. 5B
# [9] = HLB16P 250 μg/mL, weight ratio, FIG. 5A
# [10] = HLB16S 500 μg/mL, weight ratio, FIG. 5C
# [11] = compared to the LS group (p<0.05)
# [12] = compared to the LS group (p<0.01, Student's t-test)
compound,measurement,setting,value
"OC[C@H]1O[C@@H](O[C@H]2[C@H](O)[C@@H](O)[C@@H](O[C@]3(CO)O[C@H](CO)[C@@H](O)[C@@H]3O)O[C@@H]2CO)[C@H](O)[C@@H](O)[C@H]1O [LS, Lactosucrose, reference compound]",IgA amount of cecal contents,IgA,increased significantly
"CCCCCCCCCCCC(=O)OCC(O)CO (stereo not shown) [monolaurin, Monolaurin]",concentration at which cytotoxicity to the Caco-2 cells was observed,Caco-2 cells [1],≥ 156.25 µg/mL
same,concentration at which cytotoxicity to the Caco-2 cells was very high,Caco-2 cells [1],≥ 625 µg/mL
OC[C@H]1O[C@@H]2O[C@H]3[C@H](O)[C@@H](O)[C@@H](O[C@H]4[C@H](O)[C@@H](O)[C@@H](O[C@H]5[C@H](O)[C@@H](O)[C@@H](O[C@H]6[C@H](O)[C@@H](O)[C@@H](O[C@H]7[C@H](O)[C@@H](O)[C@@H](O[C@H]1[C@H](O)[C@H]2O)O[C@@H]7CO)O[C@@H]6CO)O[C@@H]5CO)O[C@@H]4CO)O[C@@H]3CO [α-CD],decrease in the cecal pH,[2]; compared to the LS group,remarkable
same,cecal pH,[2]; compared to the NF group,decreased significantly
same,proportion of the Lactobacillales in cecal microflora,[3],increased
same,suppression of the decrease in transepithelial electrical resistance value by the SE,Caco-2 cells [4],suppressed by the addition of α-CD in a concentration-dependent manner
same,IgA amount of cecal contents,IgA,increased significantly
same,IgA-increasing effect,"IgA; α-CD group vs LS group, Student's t-test",comparable to that of LS
same,suppression of the cytotoxicity of the food emulsifier,"Caco-2 cells [5]; 1000 μg/mL HLB11S and 1000 μg/mL test substance, LDH activity, FIG. 6",exhibits such an effect
same,amount of α-CD with which cytotoxicity of HLB11S disappeared completely,Caco-2 cells [5]; [8],10 times the amount
same,amount of α-CD with which cytotoxicity of HLB11S was reduced significantly,Caco-2 cells [5]; [8],≥ 0.1 times the amount
same,amount of α-CD with which cytotoxicity of HLB16P disappeared completely,Caco-2 cells [5]; [9],10 times the amount
same,amount of α-CD with which cytotoxicity of HLB16P was reduced significantly,Caco-2 cells [5]; [9],≥ 1.5 times the amount
same,amount of α-CD with which cytotoxicity of HLB16S disappeared completely,Caco-2 cells [5]; [10],5 times the amount
same,amount of α-CD with which cytotoxicity of HLB16S was reduced significantly,Caco-2 cells [5]; [10],≥ 1.5 times the amount
same,amount of α-CD with which cytotoxicity of monolaurin disappeared completely,"Caco-2 cells [5]; monolaurin 500 μg/mL, weight ratio, FIG. 5D",≥ 10 times the amount
same,increase in amount of acetic acid,[6]; compared to the LS group,remarkable
same,increase in amount of lactic acid,[6]; compared to the LS group,remarkable
same,increase in amount of n-butyric acid,[6]; compared to the LS group,remarkable
same,increase in amount of propionic acid,[6]; compared to the LS group,remarkable
same,increase in amount of succinic acid,[6]; compared to the LS group,remarkable
same,increase in total SCFAs amount,[6]; compared to the LS group,remarkable
same,amount of acetic acid in cecal contents,[6]; compared to the NF group,increased significantly
same,amount of lactic acid in cecal contents,[6]; compared to the NF group,increased significantly
same,amount of n-butyric acid in cecal contents,[6]; compared to the NF group,increased significantly
same,amount of propionic acid in cecal contents,[6]; compared to the NF group,increased significantly
same,amount of succinic acid in cecal contents,[6]; compared to the NF group,increased significantly
same,total SCFAs amount in cecal contents,[6]; compared to the NF group,increased significantly
same,"feces amount, dry weight",Feces amount measurement; [11],increased significantly
same,"feces amount, wet weight",Feces amount measurement; [11],increased significantly
same,"feces amount, wet weight","Feces amount measurement; compared to the NF group (p<0.01), FIG. 4A",increased significantly
same,"feces amount, dry weight","Feces amount measurement; compared to the NF group (p<0.01), FIG. 4B",increased significantly
same,production of the putrefactive products,[7]; [12],suppressed significantly
same,"amounts of the putrefactive products (indole, p-cresol and phenol) in cecal contents","[7]; compared to the NF group (p<0.01), FIG. 3",decreased significantly
same,mucin amount of cecal contents,mucin; [12],increased significantly
same,mucin amount of cecal contents,mucin; compared to the NF group (p<0.01),increased significantly

# Source: patent US20230089789A1, “INTESTINAL TRACT FUNCTION-IMPROVING AGENT” (CYCLOCHEM BIO CO., LTD., priority 2020, published 2023)
